Source: paper PMC3558805 (British Journal of Clinical Pharmacology, 2012)
≈ marks a conversion by molar mass, not a printed value. Entries after “also recorded” stand apart in the source; their conditions may differ.

Key:
[1] = Plasma pharmacokinetics of OZ439, summary over single and multiple dose parts; assay type: in vivo, human
[2] = system: P. falciparum laboratory strain NF54; experiment: Ex vivo bioactivity assay of serum samples; assay type: cell-based; conditions: Plasmodium falciparum
CYP3A4 = CYP3A4 induction assay; assay type: in vivo, human; conditions: up to 3 days dosing
[3] = Safety assessment in healthy subjects; assay type: in vivo, human
[4] = dogs, preclinical; cited from earlier work
[5] = Urinary excretion of OZ439 and metabolites; assay type: in vivo, human; conditions: single rising dose, 0-48 h urine, data not shown
[6] = 14 day toxicology or CNS safety pharmacology studies, preclinical; cited from earlier work
[7] = Single rising dose plasma PK, OZ439 capsule, fasted healthy subjects; assay type: in vivo, human
[8] = Single rising dose plasma PK, OZ439 oral dispersion, fasted healthy subjects; assay type: in vivo, human; conditions: for Tmax / AUC(0-inf) / AUC(0-t) / Cmax: human, plasma, po
Plasmodium berghei = conditions: single oral dose of 20 mg kg^−1; already known; cited from earlier work
[9] = Multiple rising dose plasma PK, OZ439 oral dispersion once daily for 3 days; assay type: in vivo, human; conditions: for Rac / AUC(0-t) / Cmax: geometric mean (CV%); for AUC(0-t) / Cmax / Tmax: po; for AUC(0-t): AUC(0,24 h)
[10] = Food effect on plasma PK, 800 mg OZ439 oral dispersion, fed vs fasted; assay type: in vivo; conditions: human; for AUC(0-t): single dose 800 mg OZ439 oral dispersion, geometric mean (CV%)
[11] = 800 mg oral dispersion, fasted regimen, possibly treatment related
[12] = single dose 1600 mg oral dispersion, related to study drug
[13] = both, human, plasma, oral, 50 mg
[14] = both, human, plasma, oral, 100 mg
[15] = both, human, plasma, oral, 200 mg
[16] = human, plasma, 200 mg, 200 mg once a day for 3 days, oral dispersion, day 1
[17] = human, plasma, 200 mg, 200 mg once a day for 3 days, oral dispersion, day 3
[18] = human, plasma, 400 mg, 400 mg once a day for 3 days, oral dispersion, day 1
[19] = human, plasma, 400 mg, 400 mg once a day for 3 days, oral dispersion, day 3
[20] = human, plasma, 800 mg, 800 mg once a day for 3 days, oral dispersion, day 1
[21] = human, plasma, 800 mg, 800 mg once a day for 3 days, oral dispersion, day 3

With `c1cc([C@H]2CC[C@]3(CC2)OO[C@]2(O3)C3CC4CC(C3)CC2C4)ccc1OCCN1CCOCC1` [OZ439] the Tmax ([1]; human, plasma, oral) was roughly 3 h, the “time plasma concentrations exceed the estimated minimum effective concentration” value ([1]; well tolerated dose levels) was roughly 96 h and the IC50 ([2]; NF54, ex vivo serum samples, average value) was 1.5 ng/mL (≈ 3.19 nM). For the same compound, the IC50 ([2]; NF54, ex vivo serum samples, general range) was 1.3 to 2 ng/mL (≈ 2.77 to 4.26 nM), the IC50 ([2]; NF54, pre-dose serum spiked with a known amount of OZ439) was 1.7 ng/mL (≈ 3.62 nM) and the “induction of CYP3A4” value (CYP3A4) was “did not induce”. The “subjects experiencing AEs” value ([3]; 200 mg once daily for 3 days) was “Three of six”, the “subjects experiencing AEs” value ([3]; 400 mg once daily for 3 days) was 1/6 and the “subjects experiencing AEs” value ([3]; 800 mg once daily for 3 days) was 4/6. The headache [3, 11] was 1/12, the nausea [3, 11] was 1/12 and the oropharyngeal pain [3, 11] was 1/12. The “subjects experiencing AEs” value ([3]; 800 mg oral dispersion, fed regimen) was “Three of 12”, the headache ([3]; 800 mg oral dispersion, fed regimen, possibly treatment related) was 2/12 and the safety and tolerability ([3]; 200, 400 and 800 mg once daily for 3 days) was “safe and well tolerated”. For the same compound, the “effect on QTc interval” value ([3]; healthy subjects) was “no significant effect”, the “overall incidence of AEs” value ([3]; other single rising dose groups, out of 6–8) was 0–2 subjects and the safety and tolerability ([3]; single dose 800 mg oral dispersion, fasted or fed) was “safe and well tolerated”. The “overall incidence of AEs” value ([3]; single dose 1600 mg oral dispersion) was 5/6, the diarrhoea [3, 12] was 3/6 and the gastrointestinal hypermotility [3, 12] was 2/6. For the same compound, the nausea [3, 12] was 3/6, the “effect on audiometry/BAEP” value ([3]; single dose and repeat dose parts) was “no clinically significant changes; also recorded: No effect” and the safety and tolerability ([3]; single doses 50 mg up to 1200 mg capsule, oral dispersion up to 1600 mg) was “safe and well tolerated”. For the same compound, the “no observed adverse effect level (NOAEL)” value [4] was 20 mg/kg/day, the urinary concentrations [5] was “low or below the limit of quantitation” and the “central nervous system toxicity” value [6] was “no preclinical evidence of central nervous system toxicity”. It also gave an AUC(0-t) [7, 13] of 102 ng·h/mL, a Cmax [7, 13] of 17.4 ng/mL and a Tmax [7, 13] of 3 h. The AUC(0-t) [7, 14] was 249 ng·h/mL, the Cmax [7, 14] was 34.2 ng/mL and the Tmax [7, 14] was 5 h. It also gave an AUC(0-t) [7, 15] of 890 ng·h/mL, a Cmax [7, 15] of 102 ng/mL and a Tmax [7, 15] of 3.5 h. For the same compound, the Cmax ([7]; both, human, plasma, oral, 400 mg) was 135 ng/mL, the “inter-subject variability of AUC(0,t)” value ([7]; capsule) was 71.5% and the “inter-subject variability of Cmax” value ([7]; capsule) was 79.5%. The “intra-subject variability of AUC(0,t)” value ([7]; capsule) was 92.6%, the “intra-subject variability of Cmax” value ([7]; capsule) was 77.4% and the Tmax ([7]; human, plasma, oral) was 3 to 5 h. The AUC(0-t) ([7]; human, plasma, oral, 400 mg) was 1130 ng·h/mL, the Tmax ([7]; human, plasma, oral, 400 mg) was 3 h and the AUC(0-inf) ([7]; human, plasma, oral, 800 mg) was 4690 ng·h/mL. The AUC(0-t) ([7]; human, plasma, oral, 800 mg) was 3010 ng·h/mL, the Cmax ([7]; human, plasma, oral, 800 mg) was 315 ng/mL and the Tmax ([7]; human, plasma, oral, 800 mg) was 3 h. For the same compound, the concentration at 24 h ([7]; human, plasma, oral, 800 mg) was greater than 20 ng/mL, the AUC(0-inf) ([7]; human, plasma, oral, 1200 mg) was 9130 ng·h/mL and the AUC(0-t) ([7]; human, plasma, oral, 1200 mg) was 6530 ng·h/mL. The Cmax ([7]; human, plasma, oral, 1200 mg) was 701 ng/mL, the Tmax ([7]; human, plasma, oral, 1200 mg) was 3 h and the “time mean plasma concentrations were above 10 ng ml^−1” value ([8]; 400 mg oral dispersion, fasted) was 36 h. The “time mean plasma concentrations were above 10 ng ml^−1” value ([8]; 800 mg oral dispersion, fasted) was 60 h, the “AUC(0,t), oral dispersion compared with capsule” value ([8]; 800 mg, fasted) was 3.2 fold and the “Cmax, oral dispersion compared with capsule” value ([8]; 800 mg, fasted) was 2.9 fold. For the same compound, the “time mean plasma concentrations were above 10 ng ml^−1” value ([8]; 1600 mg oral dispersion, fasted) was 96 h, the Tmax [8] was 3 to 5 h and the AUC(0-inf) ([8]; 400 mg) was 5540 ng·h/mL. The AUC(0-t) ([8]; 400 mg) was 5430 ng·h/mL, the Cmax ([8]; 400 mg) was 566 ng/mL and the Tmax ([8]; 400 mg) was 3 h. It also gave an AUC(0-inf) ([8]; 800 mg) of 9790 ng·h/mL, an AUC(0-t) ([8]; 800 mg) of 9630 ng·h/mL and a Cmax ([8]; 800 mg) of 917 ng/mL. For the same compound, the Tmax ([8]; 800 mg) was 3 h, the AUC(0-t) ([8]; 1600 mg) was 17500 ng·h/mL and the Cmax ([8]; 1600 mg) was 1340 ng/mL. The Tmax ([8]; 1600 mg) was 5 h, the “inter-subject variability of AUC(0,∞)” value ([8]; oral dispersion) was 57.2% and the “inter-subject variability of Cmax” value ([8]; oral dispersion) was 41.8%. For the same compound, the “intra-subject variability of AUC(0,∞)” value ([8]; oral dispersion) was 23.2%, the “intra-subject variability of Cmax” value ([8]; oral dispersion) was 14.0% and the “cure of Plasmodium berghei-infected mice” value (Plasmodium berghei) was “completely cures”. The Rac ([9]; 400 mg once a day for 3 days, oral dispersion, day 3) was 1.76 (29.9), the Rac ([9]; 800 mg once a day for 3 days, oral dispersion, day 3) was 1.43 (26.0) and the attainment of steady-state ([9]; day 3 of dosing) was “steady-state was not achieved; also recorded: had not been attained”. For the same compound, the concentration at 96 h ([9]; human, plasma, oral, 400 mg) was roughly 17 ng/mL, the AUC(0-t) [9, 16] was 2640 ng·h/mL and the AUC(0-t) [9, 17] was 3060 ng·h/mL. For the same compound, the Cmax [9, 16] was 314 ng/mL, the Cmax [9, 17] was 342 ng/mL and the Tmax ([9]; human, plasma, 200 mg, tmax, 200 mg once a day for 3 days, oral dispersion, day 1, median (range)) was 3.5 h. It also gave a Tmax ([9]; human, plasma, 200 mg, tmax, 200 mg once a day for 3 days, oral dispersion, day 3, median (range)) of 3 h, an AUC(0-t) [9, 18] of 4560 ng·h/mL and an AUC(0-t) [9, 19] of 7990 ng·h/mL. The Cmax [9, 18] was 505 ng/mL, the Cmax [9, 19] was 764 ng/mL and the Tmax ([9]; human, plasma, 400 mg, tmax, 400 mg once a day for 3 days, oral dispersion, day 1, median (range)) was 3.5 h. The Tmax ([9]; human, plasma, 400 mg, tmax, 400 mg once a day for 3 days, oral dispersion, day 3, median (range)) was 3 h, the AUC(0-t) [9, 20] was 9570 ng·h/mL and the AUC(0-t) [9, 21] was 13700 ng·h/mL. The Cmax [9, 20] was 1130 ng/mL, the Cmax [9, 21] was 1390 ng/mL and the Tmax ([9]; human, plasma, 800 mg, median tmax, 200, 400 or 800 mg once daily for 3 days, oral dispersion) was 3 h. For the same compound, the Tmax ([9]; human, plasma, 800 mg, tmax, 800 mg once a day for 3 days, oral dispersion, day 1, median (range)) was 3 h, the Tmax ([9]; human, plasma, 800 mg, tmax, 800 mg once a day for 3 days, oral dispersion, day 3, median (range)) was 3 h and the “inter-subject variability of AUC(0,24 h)” value ([9]; multiple dose, oral dispersion) was 54.1%. For the same compound, the “inter-subject variability of Cmax” value ([9]; multiple dose, oral dispersion) was 48.9%, the concentration at 96 h [10] was greater than 10 ng/mL and the AUC(0-t) ([10]; fasted) was 7590 ng·h/mL. For the same compound, the AUC(0-t) ([10]; fed) was 23100 ng·h/mL.
